Assay results as given in patent publication US20040156869A1, “2-substituted quinazolin-4-ylamine analogues” (Neurogen Corporation, priority 2002, published 2004).
pKi: −log10 of the molar value.

The compounds below were run against human capsaicin receptor (VR1) (Homo sapiens, UniProt Q8NER1) (assay: Capsaicin receptor binding assay ([3H]RTX competition, VR1-transfected HEK293 membranes)).
human capsaicin receptor (VR1), sequence (Q8NER1 whole entry): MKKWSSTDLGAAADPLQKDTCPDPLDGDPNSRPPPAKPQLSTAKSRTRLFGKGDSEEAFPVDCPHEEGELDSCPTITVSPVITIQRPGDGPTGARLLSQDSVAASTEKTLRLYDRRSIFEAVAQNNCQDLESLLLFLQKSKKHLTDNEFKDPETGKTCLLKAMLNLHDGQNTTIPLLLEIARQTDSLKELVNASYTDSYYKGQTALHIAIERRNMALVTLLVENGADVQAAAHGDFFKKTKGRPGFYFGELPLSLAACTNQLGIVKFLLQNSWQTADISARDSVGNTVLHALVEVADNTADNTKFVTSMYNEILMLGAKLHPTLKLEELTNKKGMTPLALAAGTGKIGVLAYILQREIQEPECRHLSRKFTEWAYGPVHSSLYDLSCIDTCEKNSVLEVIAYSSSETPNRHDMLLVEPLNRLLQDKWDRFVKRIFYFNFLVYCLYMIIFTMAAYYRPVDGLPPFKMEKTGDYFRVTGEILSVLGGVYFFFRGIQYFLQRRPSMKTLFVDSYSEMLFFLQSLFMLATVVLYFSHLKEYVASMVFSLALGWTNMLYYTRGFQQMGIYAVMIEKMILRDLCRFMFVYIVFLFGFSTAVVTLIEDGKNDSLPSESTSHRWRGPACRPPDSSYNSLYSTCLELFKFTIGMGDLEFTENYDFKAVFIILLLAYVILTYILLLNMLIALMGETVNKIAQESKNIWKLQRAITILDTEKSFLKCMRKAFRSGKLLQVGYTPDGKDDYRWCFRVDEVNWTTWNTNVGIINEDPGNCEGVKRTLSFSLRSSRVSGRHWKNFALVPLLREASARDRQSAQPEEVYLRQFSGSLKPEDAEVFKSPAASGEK

pKi, > 6.00:
CC(C)N(C)Cc1nc(Nc2ccc(S(=O)(=O)N3CCOCC3)cc2)c2ccc(-c3ncccc3C(F)(F)F)cc2n1 [Compound 723, [2-[(Isopropyl-methyl-amino)-methyl]-7-(3-trifluoromethyl-pyridin-2-yl)-quinazolin-4-yl]-[4-(morpholine-4-sulfonyl)-phenyl]-amine]
OCCNCc1nc(Nc2ccc(C(F)(F)F)cc2)c2ccc(-c3ncccc3C(F)(F)F)cc2n1 [Compound 534, 2-{[4-(4-Trifluoromethyl-phenylamino)-7-(3-trifluoromethyl-pyridin-2-yl)-quinazolin-2-ylmethyl]-amino}-ethanol]
CC(C)COCc1nc(Nc2ccc(Cl)cc2)c2ccc(-c3ncccc3C(F)(F)F)nc2n1 [Compound 249, (4-Chloro-phenyl)-[2-isobutoxymethyl-7-(3-trifluoromethyl-pyridin-2-yl)-pyrido[2,3-d]pyrimidin-4-yl]-amine]
Cc1cccnc1-c1ccc2c(Nc3ccc(C(F)(F)F)cc3)nc(COCC(C)C)nc2n1 [Compound 131, [2-Isobutoxymethyl-7-(3-methyl-pyridin-2-yl)-pyrido[2,3-d]pyrimidin-4-yl]-(4-trifluoromethyl-phenyl)-amine]
COCCN1CCN(Cc2nc(Nc3ccc(C(F)(F)F)cc3)c3ccc(-c4ncccc4C(F)(F)F)cc3n2)CC1 [Compound 514, [2-[4-(2-Methoxy-ethyl)-piperazin-1-ylmethyl]-7-(3-trifluoromethyl-pyridin-2-yl)-quinazolin-4-yl]-(4-trifluoromethyl-phenyl)-amine]
CCN(Cc1nc(Nc2ccc(C(C)C)cc2)c2ccc(-c3ncccc3C)cc2n1)C(C)C [Compound 717, [2-[(Ethyl-isopropyl-amino)-methyl]-7-(3-methyl-pyridin-2-yl)-quinazolin-4-yl]-(4-isopropyl-phenyl)-amine]
CC(C)COCc1nc(Nc2ccc(S(C)(=O)=O)cc2)c2ccc(-c3ncccc3C(F)(F)F)nc2n1 [Compound 214, [2-Isobutoxymethyl-7-(3-trifluoromethyl-pyridin-2-yl)-pyrido[2,3-d]pyrimidin-4-yl]-(4-methanesulfonyl-phenyl)-amine]
CN(Cc1nc(Nc2ccc(C(F)(F)F)nc2)c2ccc(-c3ncccc3C(F)(F)F)cc2n1)Cc1ccccc1F [Compound 355, [2-{[(2-Fluoro-benzyl)-methyl-amino]-methyl}-7-(3-trifluoromethyl-pyridin-2-yl)-quinazolin-4-yl]-(6-trifluoromethyl-pyridin-3-yl)-amine]
COCc1nc(Nc2ccc(C(F)F)cc2)c2ccc(-c3ncccc3C(F)(F)F)nc2n1 [Compound 240, (4-Difluoromethyl-phenyl)-[2-methoxymethyl-7-(3-trifluoromethyl-pyridin-2-yl)-pyrido[2,3-d]pyrimidin-4-yl]-amine]
COCc1nc(Nc2ccc(C(F)(F)F)nc2)c2ccc(-c3ncccc3C(F)(F)F)nc2n1 [Compound 147, [2-Methoxymethyl-7-(3-trifluoromethyl-pyridin-2-yl)-pyrido[2,3-d]pyrimidin-4-yl]-(6-trifluoromethyl-pyridin-3-yl)-amine]
CCOCc1nc(Nc2ccc(C(C)C)cc2)c2ccc(-c3ncccc3Cl)cc2n1 [Compound 80, [7-(3-Chloro-pyridin-2-yl)-2-ethoxymethyl-quinazolin-4-yl]-(4-isopropyl-phenyl)-amine]
C[C@H]1CN(Cc2nc(Nc3ccc(C(F)(F)F)cc3)c3ccc(-c4ncccc4C(F)(F)F)cc3n2)CCO1 [Compound 686, (S)-[2-(2-Methyl-morpholin-4-ylmethyl)-7-(3-trifluoromethyl-pyridin-2-yl)-quinazolin-4-yl]-(4-trifluoromethyl-phenyl)-amine]
COCc1nc(Nc2ccc(C(C)(C)C)cc2)c2ncc(-c3ncccc3Cl)cc2n1 [Compound 65, (4-tert-Butyl-phenyl)-[7-(3-chloro-pyridin-2-yl)-2-methoxymethyl-pyrido[3,2-d]pyrimidin-4-yl]-amine]
COCCNC(=O)c1nc(Nc2ccc(C(F)(F)F)cc2)c2ccc(-c3ncccc3C(F)(F)F)cc2n1 [Compound 762, 4-(4-Trifluoromethyl-phenylamino)-7-(3-trifluoromethyl-pyridin-2-yl)-quinazoline-2-carboxylic acid (2-methoxy-ethyl)-amide]
FC(F)(F)c1ccc(Nc2nc(CN3CCSCC3)nc3cc(-c4ncccc4C(F)(F)F)ccc23)cn1 [Compound 555, [2-Thiomorpholin-4-ylmethyl-7-(3-trifluoromethyl-pyridin-2-yl)-quinazolin-4-yl]-(6-trifluoromethyl-pyridin-3-yl)-amine]
Cc1cccnc1-c1ccc2c(Nc3ccc(C4(C#N)CCC4)cc3)nc(COCC(C)C)nc2n1 [Compound 151, 1-{4-[2-Isobutoxymethyl-7-(3-methyl-pyridin-2-yl)-pyrido[2,3-d]pyrimidin-4-ylamino]-phenyl}-cyclobutanecarbonitrile]
CC(=O)N1CCC(c2nc(Nc3ccc(C(F)(F)F)cc3)c3ccc(-c4ncccc4C(F)(F)F)cc3n2)CC1 [Compound 693, 1-{4-[4-(4-Trifluoromethyl-phenylamino)-7-(3-trifluoromethyl-pyridin-2-yl)-quinazolin-2-yl]-piperidin-1-yl}-ethanone]
OCC1CCN(Cc2nc(Nc3ccc(C(F)(F)F)nc3)c3ccc(-c4ncccc4C(F)(F)F)cc3n2)CC1 [Compound 482, {1-[7-(3-Trifluoromethyl-pyridin-2-yl)-4-(6-trifluoromethyl-pyridin-3-ylamino)-quinazolin-2-ylmethyl]-piperidin-4-yl}-methanol]
CC(C)N1CCN(C(=O)c2nc(Nc3ccc(C(F)(F)F)cc3)c3ccc(-c4ncccc4C(F)(F)F)nc3n2)CC1 [Compound 471, (4-Isopropyl-piperazin-1-yl)-[4-(4-trifluoromethyl-phenylamino)-7-(3-trifluoromethyl-pyridin-2-yl)-pyrido[2,3-d]pyrimidin-2-yl]-methanone]
C[C@@H]1CN(Cc2nc(Nc3ccc(C(C)(C)C)cc3)c3ccc(-c4cncnc4)cc3n2)C[C@H](C)O1 [Compound 677, (4-tert-Butyl-phenyl)-[2-(2,6-dimethyl-morpholin-4-ylmethyl)-7-pyrimidin-5-yl-quinazolin-4-yl]-amine (cis)]
CC(C)COCc1nc(Nc2ccc(F)c(C(F)(F)F)c2)c2ccc(-c3ncccc3C(F)(F)F)nc2n1 [Compound 254, (4-Fluoro-3-trifluoromethyl-phenyl)-[2-isobutoxymethyl-7-(3-trifluoromethyl-pyridin-2-yl)-pyrido[2,3-d]pyrimidin-4-yl]-amine]
CC(C)COCc1nc(Nc2ccc(C(F)(F)F)nc2)c2ccc(-c3ncccc3Cl)nc2n1 [Compound 177, [7-(3-Chloro-pyridin-2-yl)-2-isobutoxymethyl-pyrido[2,3-d]pyrimidin-4-yl]-(6-trifluoromethyl-pyridin-3-yl)-amine]
CCCN(CCC)Cc1nc(Nc2ccc(C(F)(F)F)cc2)c2ccc(-c3ncccc3C)cc2n1 [Compound 726, [2-Dipropylaminomethyl-7-(3-methyl-pyridin-2-yl)-quinazolin-4-yl]-(4-trifluoromethyl-phenyl)-amine]
COCc1nc(Nc2ccc(C(F)(F)F)c(C)c2)c2ccc(-c3ncccc3Cl)nc2n1 [Compound 197, [7-(3-Chloro-pyridin-2-yl)-2-methoxymethyl-pyrido[2,3-d]pyrimidin-4-yl]-(3-methyl-4-trifluoromethyl-phenyl)-amine]
COCc1nc(Nc2ccc(S(=O)(=O)C(F)(F)F)cc2)c2ccc(-c3nccnc3Cl)nc2n1 [Compound 239, [7-(3-Chloro-pyrazin-2-yl)-2-methoxymethyl-pyrido[2,3-d]pyrimidin-4-yl]-(4-trifluoromethanesulfonyl-phenyl)-amine]
C[C@@H]1CN(Cc2nc(Nc3ccc(C(C)(C)C)cc3)c3ccc(-c4ncccc4C(F)(F)F)nc3n2)C[C@H](C)O1 [Compound 757, (4-tert-Butyl-phenyl)-[2-(2,6-dimethyl-morpholin-4-ylmethyl)-7-(3-trifluoromethyl-pyridin-2-yl)-pyrido[2,3-d]pyrimidin-4-yl]-amine (cis)]
COCc1cc(Nc2ccc(C(C)(C)C)cc2)c2ccc(-c3ncccc3C(F)(F)F)nc2n1 [Compound 298, (4-tert-Butyl-phenyl)-[2-methoxymethyl-7-(3-trifluoromethyl-pyridin-2-yl)-[1,8]naphthyridin-4-yl]-amine]
O=C(O)c1nc(Nc2ccc(C(F)(F)F)cc2)c2ccc(-c3ncccc3C(F)(F)F)nc2n1 [Compound 206, 4-(4-Trifluoromethyl-phenylamino)-7-(3-trifluoromethyl-pyridin-2-yl)-pyrido[2,3-d]pyrimidine-2-carboxylic acid]
CCCN(CC)Cc1nc(Nc2ccc(C(C)C)cc2)c2ccc(-c3ncccc3C)cc2n1 [Compound 715, [2-[(Ethyl-propyl-amino)-methyl]-7-(3-methyl-pyridin-2-yl)-quinazolin-4-yl]-(4-isopropyl-phenyl)-amine]
CC(C)(C)c1ccc(Nc2nc(COCCCN3CCOCC3)nc3cc(-c4ncccc4C(F)(F)F)ccc23)cc1 [Compound 124, (4-tert-Butyl-phenyl)-[2-(3-morpholin-4-yl-propoxymethyl)-7-(3-trifluoromethyl-pyridin-2-yl)-quinazolin-4-yl]-amine]
Cc1cccnc1-c1ccc2c(Nc3ccc(C(C)(C)C)cc3)nc(COCC(C)C)nc2n1 [Compound 129, (4-tert-Butyl-phenyl)-[2-isobutoxymethyl-7-(3-methyl-pyridin-2-yl)-pyrido[2,3-d]pyrimidin-4-yl]-amine]
COCCN(CCOC)Cc1cc(Nc2ccc(C(F)(F)F)cc2)c2ccc(-c3ncccc3C(F)(F)F)nc2n1 [Compound 775, [2-{[Bis-(2-methoxy-ethyl)-amino]-methyl}-7-(3-trifluoromethyl-pyridin-2-yl)-[1,8]naphthyridin-4-yl]-(4-trifluoromethyl-phenyl)-amine]
